Experimental data as given in ChEMBL document CHEMBL1201862, “PubChem BioAssay data set” (2004).
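Assay format: 96-well plates, 48-hour exposure. The concentration for 50% growth inhibition is given as GI50.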 Activity calls are given as the source filed them. Rule as the data show it: active = GI50 up to about 1.1 µM and inactive = higher.

Columns and labels:
Test in all cases: inhibition of tumour cell growth, NCI panel, 48 h
[1] = test system: SR
[2] = test system: HCT-15
[3] = test system: UO-31
[4] = test system: KM12
[5] = test system: SK-OV-3
[6] = test system: SF-295
[7] = test system: M14
[8] = test system: CAKI-1
[9] = test system: A549
[10] = test system: RXF 393
[11] = test system: OVCAR-4
[12] = test system: UACC-257
[13] = test system: U-251
[14] = test system: UACC-62
[15] = test system: K562
[16] = test system: HT-29
[17] = test system: SF-539
[18] = test system: MOLT-4
[19] = test system: NCI-H226
[20] = test system: RPMI-8226

SMILES	GI50 [1]	GI50 [2] [µM]	GI50 [3]	GI50 [4]	GI50 [5]	GI50 [6]	GI50 [7]	GI50 [8]	GI50 [9]	GI50 [10]	GI50 [11]	GI50 [12]	GI50 [13]	GI50 [14]	GI50 [15]	GI50 [16]	GI50 [17]	GI50 [18]	GI50 [19]	GI50 [20]
CC[C@@]1(O)C[C@H](OC2CC(N(C)C)C(O)C(C)O2)c2c(O)c3c(c(O)c2[C@H]1OC1CC(N(C)C)C(O)C(C)O1)C(=O)c1cccc(O)c1C3=O (stereo not given in full)	0.0385 µM (active)	0.0585	0.0275 µM (active)	0.028 µM (active)	0.0397 µM (active)	0.04 µM (active)	0.0357 µM (active)	0.0195 µM (active)	0.0306 µM (active)	0.0255 µM (active)	0.0409 µM (active)	0.146 µM (active)	0.0264 µM (active)	0.0253 µM (active)	0.0267 µM (active)	0.0224 µM (active)	0.0531 µM (active)	0.0817 µM (active)	0.0219 µM (active)	0.0409 µM (active)
Cc1cccc(CC(Cc2c(C)cccc2C(=O)O)C(=O)O)c1 (stereo not given)	> 100 µM (inactive)	31.3	> 100 µM (inactive)	> 100 µM (inactive)	> 100 µM (inactive)	> 100 µM (inactive)	> 100 µM (inactive)	> 100 µM (inactive)	> 100 µM (inactive)	> 100 µM (inactive)	> 100 µM (inactive)	> 100 µM (inactive)	> 100 µM (inactive)	0.0875 µM (active)	> 100 µM (inactive)	> 100 µM (inactive)	> 100 µM (inactive)	> 100 µM (inactive)	> 100 µM (inactive)	> 100 µM (inactive)
Nc1ccc(S(=O)(=O)Nc2nc3ccccc3nc2N2CCCCCC2)cc1	12.5 µM (inactive)	23.9	13.2 µM (inactive)	30.9 µM (inactive)	33.6 µM (inactive)	22.9 µM (inactive)	37.2 µM (inactive)	26.4 µM (inactive)	27.7 µM (inactive)	16 µM (inactive)	17.1 µM (inactive)	32.9 µM (inactive)	20.2 µM (inactive)	18.1 µM (inactive)	17.6 µM (inactive)	33.3 µM (inactive)	18.5 µM (inactive)	16 µM (inactive)	34.7 µM (inactive)	14.6 µM (inactive)
CN(C)CCCNc1ccc2nnn3c4ccc([N+](=O)[O-])cc4c(=O)c1c23	0.617 µM (active)	0.916	1.28 µM (inactive)	0.986 µM (active)	1.79 µM (inactive)	1.42 µM (inactive)	2.14 µM (inactive)	1.73 µM (inactive)	0.721 µM (active)	1.12 µM (active)	1.02 µM (active)	3.4 µM (inactive)	0.738 µM (active)	4.33 µM (inactive)	0.589 µM (active)	0.55 µM (active)	2.13 µM (inactive)	0.21 µM (active)	0.403 µM (active)	0.946 µM (active)
